Measurements published in article PMC8395308 (International Journal of Molecular Sciences, 2021).
“And” between values parts separate entries of the source, which are not always exact repeats. Equal entries are not always repeated. “Also recorded” adds a separate entry of the source. Structures can show the parent of a compound that is named as a salt.

Assays:
BoNT/A = BoNT/A (Clostridium botulinum, UniProt P0DPI0); design: species or system CD-1 mice; settings: mouse, in vivo; for Survival (protection) of treated mice / Therapeutic effect versus solvent (log-rank test): ip
BoNT/A, sequence (P0DPI0 2-448 limits assumed): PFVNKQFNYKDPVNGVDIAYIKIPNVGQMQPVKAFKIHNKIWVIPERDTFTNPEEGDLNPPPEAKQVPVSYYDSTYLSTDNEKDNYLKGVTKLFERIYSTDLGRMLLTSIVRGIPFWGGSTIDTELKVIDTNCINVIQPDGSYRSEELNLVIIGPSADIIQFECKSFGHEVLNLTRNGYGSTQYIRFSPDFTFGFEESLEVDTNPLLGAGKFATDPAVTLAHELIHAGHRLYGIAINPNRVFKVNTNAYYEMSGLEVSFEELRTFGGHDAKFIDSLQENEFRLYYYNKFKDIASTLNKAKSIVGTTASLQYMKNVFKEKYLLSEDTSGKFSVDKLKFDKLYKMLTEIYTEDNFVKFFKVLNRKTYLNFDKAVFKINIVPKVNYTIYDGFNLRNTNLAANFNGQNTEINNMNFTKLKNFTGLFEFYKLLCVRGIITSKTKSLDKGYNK
BoNT/A, sequence (P0DPI0 449-1296 limits assumed): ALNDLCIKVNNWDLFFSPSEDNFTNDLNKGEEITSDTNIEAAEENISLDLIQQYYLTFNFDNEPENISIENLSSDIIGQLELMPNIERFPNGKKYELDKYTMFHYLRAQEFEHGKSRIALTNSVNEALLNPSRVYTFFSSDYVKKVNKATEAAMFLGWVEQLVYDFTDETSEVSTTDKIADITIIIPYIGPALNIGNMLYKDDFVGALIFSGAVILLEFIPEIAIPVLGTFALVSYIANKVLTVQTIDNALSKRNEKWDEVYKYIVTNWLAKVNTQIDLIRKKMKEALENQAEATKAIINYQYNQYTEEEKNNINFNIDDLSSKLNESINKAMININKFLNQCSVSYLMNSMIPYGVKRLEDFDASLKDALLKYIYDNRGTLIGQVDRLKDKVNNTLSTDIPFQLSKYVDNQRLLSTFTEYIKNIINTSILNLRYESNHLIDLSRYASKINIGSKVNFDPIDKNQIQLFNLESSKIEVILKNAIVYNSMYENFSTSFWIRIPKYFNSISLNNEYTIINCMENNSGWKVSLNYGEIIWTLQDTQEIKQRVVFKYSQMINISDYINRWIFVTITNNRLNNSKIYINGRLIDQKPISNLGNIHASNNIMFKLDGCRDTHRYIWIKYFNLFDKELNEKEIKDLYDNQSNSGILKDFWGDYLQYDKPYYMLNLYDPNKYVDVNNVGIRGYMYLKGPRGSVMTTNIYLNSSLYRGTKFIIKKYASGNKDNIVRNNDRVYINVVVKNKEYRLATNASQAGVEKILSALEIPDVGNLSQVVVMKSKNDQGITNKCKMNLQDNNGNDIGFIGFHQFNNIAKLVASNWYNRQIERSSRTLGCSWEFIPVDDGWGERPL

BoNT/E = test system: BoNT/E; design: species or system CD-1 mice; settings: mouse, in vivo
[1] = target: receptor binding domain (HC fragment) of BoNT/A binding to the fourth luminal domain of SV2C (Clostridium botulinum, UniProt P0DPI0); test: biochemical; design: species or system Mus musculus; settings: for IC50: IC50 (µM), TSP-RSP interaction inhibition; for inhibition at 100 µM: read-out: Maximal Inhibition (%)
receptor binding domain (HC fragment) of BoNT/A binding to the fourth luminal domain of SV2C, sequence (P0DPI0 872-1296 limits assumed): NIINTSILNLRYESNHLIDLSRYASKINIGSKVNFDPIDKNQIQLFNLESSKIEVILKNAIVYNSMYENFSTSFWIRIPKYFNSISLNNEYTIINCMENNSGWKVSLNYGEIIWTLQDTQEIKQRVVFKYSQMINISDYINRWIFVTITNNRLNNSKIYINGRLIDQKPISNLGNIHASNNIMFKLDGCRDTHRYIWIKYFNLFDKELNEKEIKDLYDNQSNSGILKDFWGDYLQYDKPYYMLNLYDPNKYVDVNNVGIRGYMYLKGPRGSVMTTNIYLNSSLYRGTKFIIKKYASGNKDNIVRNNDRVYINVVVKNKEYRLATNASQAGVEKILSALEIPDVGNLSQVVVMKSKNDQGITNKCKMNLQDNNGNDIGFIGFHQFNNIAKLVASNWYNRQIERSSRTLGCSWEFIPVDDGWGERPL

NC(Cc1cc(O)c(O)cc1O)C(=O)O (racemic) [6-OHD, 6-Hydroxy-DL-DOPA]
median survival time (hr) treated (BoNT/A): 28.7 h
survival time of the nonsurviving treated animals (BoNT/A): 28.7 h
Survival (protection) of treated mice (BoNT/A): 33%
Therapeutic effect versus solvent (log-rank test) (BoNT/A): Significant beneficial therapeutic effects
median TTD / median survival time of treated mice (BoNT/E): 9.8 h
median survival time (hr) treated (BoNT/E): 9.8 h
IC50 [1]: 1 µM
inhibition at 100 µM [1]: 98%

O=C(O)C1=CC(=C(c2ccc(O)c(C(=O)O)c2)c2ccc(O)c(C(=O)O)c2)C=CC1=O [ATA, Aurintricarboxylic acid]
survival time of the nonsurviving treated animals (BoNT/A): 96 h
Survival (protection) of treated mice (BoNT/A): 92% and 91.6%
Therapeutic effect versus solvent (log-rank test) (BoNT/A): Significant beneficial therapeutic effects
Survival of treated mice (BoNT/E; ip): 100%
Therapeutic effect versus solvent (log-rank test) (BoNT/E; ip): fully protective; also recorded: completely protected
IC50 [1]: 2 µM
inhibition at 100 µM [1]: 100%

NC(CO)C(=O)NNCc1ccc(O)c(O)c1O (stereo not drawn) [Benserazide, Benserazide hydrochloride]
median survival time (hr) treated (BoNT/A): 29.8 h
median survival time / TTD in the treated group (BoNT/A): 29.8 h
Therapeutic effect versus solvent (log-rank test) (BoNT/A): Significant beneficial therapeutic effects
median TTD / median survival time of treated mice (BoNT/E): 10.7 h
median survival time (hr) treated (BoNT/E): 10.7 h
IC50 [1]: 18 µM
inhibition at 100 µM [1]: 95%

CO/N=C(\C(=O)N[C@@H]1C(=O)N2C(C(=O)O)=C(COC(C)=O)CS[C@H]12)c1csc(N)n1 [Cefotaxime sodium]
median survival time (hr) treated (BoNT/A): 21.0 h
Therapeutic effect versus solvent (log-rank test) (BoNT/A): did not exert beneficial therapeutic effects
Maximal Inhibition (%) [1]: 91%
IC50 [1]: 3 µM
inhibition at 100 µM [1]: ~90%

CC(=O)OCC1=C(C(=O)O)N2C(=O)[C@@H](NC(=O)CCC[C@@H](N)C(=O)O)[C@H]2SC1 [Cephalosporin C zinc salt]
IC50 [1]: 27 µM
inhibition at 100 µM [1]: ~90%

Nc1nc2[nH]c(=O)cnc2c(=O)[nH]1 [Isoxanthopterin]
median survival time (hr) treated (BoNT/A): 26.67 h
Therapeutic effect versus solvent (log-rank test) (BoNT/A): did not exert beneficial therapeutic effects
IC50 [1]: 34 µM
inhibition at 100 µM [1]: 68%

C=CC1=C(C)c2cc3[nH]c(cc4nc(cc5[nH]c(cc1n2)c(C)c5CCC(=O)O)C(CCC(=O)O)=C4C)c(C)c3C=C [PPIX, Protoporphyrin IX disodium]
median survival time (hr) treated (BoNT/A): 26.0 h
median survival time / TTD in the treated group (BoNT/A): 26.0 h
Therapeutic effect versus solvent (log-rank test) (BoNT/A): Significant beneficial therapeutic effects
median TTD / median survival time of treated mice (BoNT/E): 10.7 h
median survival time (hr) treated (BoNT/E): 10.7 h
IC50 [1]: 84 µM
inhibition at 100 µM [1]: ~80%

NCCOc1cc(C(=O)Nc2cc(OCCN)c3ccccc3n2)nc(C(=O)Nc2cc(OCCN)c3ccccc3n2)c1 [Pyridostatin trifluoroacetate salt]
median survival time (hr) treated (BoNT/A): 22.17 h
Therapeutic effect versus solvent (log-rank test) (BoNT/A): did not exert beneficial therapeutic effects
IC50 [1]: 4 µM
inhibition at 100 µM [1]: ~80%

C[C@@](Cc1ccc(O)c(O)c1)(NN)C(=O)O [carbidopa]
Inhibition of the interaction between HC/A fragment and SV2C [1]: failed to inhibit
